From a melting point compilation (Tetko et al.; mined from patent text by program, amines drawn as free bases though some values may be those of a salt)
Residues, ends and D or L forms follow the SMILES beside them. *: point of attachment. Tos = Cc1ccc(S(=O)(=O)*)cc1; NHPh = c1ccc(N*)cc1

Row | SMILES | melting point [°C]
1 | C(=C\c1nc2ccccc2n1-c1nccs1)/c1ccccc1 | 99 to 99.5
2 | CC(C)(CCn1ccnc1)NCC(O)c1ccc(OCc2ccccc2)c(NC(N)=O)c1 (configuration not stated) | 142 to 143
3 | CCc1nc(-c2cccc(C)c2)c(-c2ccnc(NC(=O)Cc3ccccc3)c2)s1 | 107 to 108
4 | CC(=O)Oc1c(C)sc2ccccc12 | 75 to 77
5 | CCOC(=O)c1ccc(Cn2c(C)nc3ccc(C(=O)NS(=O)(=O)c4ccccc4)nc32)c(Cl)c1 | 196 to 197
6 | Nc1ncccc1-c1nc2ccc(-c3cn[nH]c3)nc2n1-c1ccc(CNC(=O)c2cccc(F)c2)cc1 | 267 to 269
7 | CSC(=NC(=O)N(C)C)N(C)C(=O)Nc1ccccc1 | 74 to 77
8 | COc1ccc(C(C)N(C)CCCOc2ccc(S(=O)(=O)c3c(C(C)C)n(C)c4ccccc34)cc2)cc1OC (configuration not stated) | 96
9 | c1cc(-c2ccncc2)c2sccc2c1 | 71 to 72
10 | CCCc1c(C#N)c2ccc(C(=O)O)cc2n1Cc1ccccc1Cl | 240 to 241
11 | CCO[PH](=O)CN(C)c1cc(Oc2ccc(C(F)(F)F)cc2Cl)ccc1[N+](=O)[O-] (configuration not stated) | 118 to 120
12 | CCCCCCCCCCCCCCOc1ccc(CNc2ccccc2CO)cc1 | 72 to 75
13 | CCC(=CC(CSc1nnnn1C)=NO)C(C)[N+](=O)[O-] (configuration not stated) | 83 to 84
14 | CCOC(=O)CCNC(=O)Nc1cc(-c2ccc3cc(NS(C)(=O)=O)ccc3c2)c(OC)c(C(C)(C)C)c1 | > 300
15 | CC(/C=C/CC(C)c1cc(C(C)(C)C)cc(C(C)(C)C)c1)=C\C(=O)O (configuration not stated) | 127 to 128
16 | COc1ccc2c(Cc3ccco3)nnc(-c3ccccc3)c2c1 | 128 to 129
17 | O=[N+]([O-])C=C1NCCN1Cc1ccc(Cl)nc1 | 160 to 161

Row | SMILES | melting point [°C]
18 | O=C(NOCC(O)CN1CCCCC1)Nc1cccc([N+](=O)[O-])c1 (configuration not stated) | 137 to 139
19 | O=C(O)c1cc(I)c(F)c(F)c1F | 167 to 171
20 | CC(C)(C)c1cc(Cn2cncn2)cc(C(C)(C)C)c1O | < 30
21 | Cc1ccnc(CSCCNc2ncc(Cc3cccnc3)c(=O)[nH]2)c1Br | 81 to 85
22 | COc1c(N2CCNCC2)c(F)cc2c(=O)c(C(=O)O)c3n(c12)C(C)S3 (configuration not stated) | 278 to 280
23 | CC(C)(C)NC(=O)N1CC(Oc2cccc(C(F)(F)F)c2)C1 | 105 to 107
24 | CN(Cc1ccccc1)c1ccc(C(=O)c2ccccc2)cc1N | 93 to 94
25 | COc1cc(C(C)N(O)C(N)=O)ccc1OCCc1ccccc1 (configuration not stated) | 112 to 115
26 | COC(=O)C(C)(C)Cc1c(SC(C)(C)C)c2cc(OC)ccc2n1Cc1ccc(Cl)cc1 | 102 to 103
27 | COCCNc1cc(Cl)cc(NCCOC)c1[N+](=O)[O-] | 90
28 | C#Cc1ccc(CCNC(=O)c2cc(Cl)ccc2OC)cc1S(=O)(=O)NC(=S)NC | 224 to 225
29 | CCCCc1nc(Cl)c(CC(=O)OC)n1Cc1ccc(NS(=O)(=O)C(F)(F)F)cc1 | 154 to 157
30 | CC(=O)Nc1sccc1C(=O)c1ccccc1F | 144
31 | Cn1nc(-c2c(F)cccc2Cl)nc1-c1ccc(Oc2ccccc2)cc1Cl | 135 to 140
32 | C(=Cc1ccc2ccccc2c1)c1ccccc1 | 143 to 145
33 | NC1=Nc2ccc([N+](=O)[O-])cc2C(c2ccccc2F)=NC1 | 225 to 227
34 | COCCN(CCOC)Cc1ccc(NC(=O)C2=Cc3cc(-c4ccc(C)cc4)ccc3OCC2)cc1 | 110 to 112

More lines, now with the values ahead:

Row | melting point [°C] | SMILES
35 | 94 to 95 | CCOC(=O)c1cccc(-c2ccnc(OCCc3ccc(OC)c(OC)c3)n2)c1
36 | 174 to 175 | CC(=O)c1c(N)ncn1C1c2ccccc2CC1(C)C (configuration not stated)
37 | 227 to 231 | Brc1c(OCc2nnn[nH]2)ccc2cc(-c3csc(-c4ccccc4)n3)ccc12
38 | 72 to 73 | CN(Cc1ccc(F)cc1)C1CCN(c2ccc(Cl)cc2)CC1
39 | 180 to 183 | COc1ccc(-c2nc3cc(OC)cc(C#N)c3o2)cc1
40 | 267 to 268 | Cc1cc(O)ccc1-n1cc(C(=O)O)c(=O)cc1C=NN1CCOCC1
41 | 128 to 129 | Cc1cc(-c2ccc(C#N)cc2)c(C)n1Cc1cnc(Cl)c(CO)c1
42 | 309 to 312 | O=C1Cc2cc(C3=NNC(=O)C4CCC34)ccc2N1 (configuration not stated)
43 | 199 to 203 | CC(CCO)NC1=NS(=O)(=O)c2sc(Cl)cc2N1 (configuration not stated)
44 | 121 to 122 | O=C1CCCc2scnc21
45 | 317 to 319 | O=C(O)Cn1c(=O)c(=O)[nH]c2cc(Cl)c(Cl)cc21
46 | 133 to 135 | CCOc1cccc(-c2cn(C)cc(-c3ccccc3)c2=O)c1
47 | 184 to 186 | CN1CCN(c2cccc3c2C[C@H](NC(=O)c2ccc(C#N)cc2)CC3)CC1
48 | 160 to 162 | C=CCc1c(O)ccc2c(C)c(CC(=O)OC)c(=O)oc12
49 | 143 to 146 | Cc1n[nH]c(=O)n(Cc2ccccc2)c1=O
50 | 131 to 132 | COc1cc2c3c(c1OC)C=NCC3c1ccccc1CC2 (configuration not stated)
51 | 54 to 55 | CCCCCOc1c(OC)cc([N+](=O)[O-])c2nccc(C)c12
52 | 138 to 140 | CC(=O)Oc1c(C)c(C)c2c(c1C)CCC(C)(COc1ccc(N)cc1)O2 (configuration not stated)
53 | 156 to 158 | O=C(O)COc1cc(F)c(F)cc1C(=O)NCc1ccc(Br)cc1F

Row | melting point [°C] | SMILES
54 | 104 to 107 | O=C(O)CCCCCOc1ccc([N+](=O)[O-])cc1
55 | 159 to 161 | COc1cc(-c2ccc(O)cc2)ccc1C=O
56 | 129 to 132 | CC(C)(C)OC(=O)N1CCc2cc3ccccc3n2CC1
57 | 104 to 106 | CN(C)CC1CC(c2ccc(S(C)(=O)=O)cc2)=C(c2cc(F)cc(F)c2)C1=O (configuration not stated)
58 | 272 | CCN(CC)c1ccc(-c2cc(-c3ccc(C(=O)O)cc3)ccc2CCCN)cc1C(C)(C)C
59 | 174 to 176 | COc1cc(OC)c(-c2cccs2)cc1/C=C/C(=O)c1ccc(S(=O)(=O)NN2CCCCC2)cc1
60 | 145 to 147 | Cc1ccc(S(=O)(=O)N[C@@H](C)C(=O)N2CCC[C@H]2C(=O)Nc2ccccc2)cc1 (Tos-Ala-Pro-NHPh)
61 | 174 to 176 | CNC(=O)OCc1c(COC(=O)NC)c2n(c1C)Cc1ccccc1C2
62 | 235 to 236 | Cc1nn(C)c2nc(-c3ccncc3)nc(N)c12
63 | 115 to 117 | Cc1nn(-c2cc(Oc3ccc([N+](=O)[O-])cc3)c(Cl)cc2F)c(=O)n1C(F)F
64 | 111 to 112 | CCN1C(=O)C(C(=O)c2cccs2)c2cc(Cl)cnc21 (configuration not stated)
65 | 161 to 163 | CCOC(=O)c1ccc2cc(Oc3cccc([N+](=O)[O-])c3)ccn2c1=O
66 | 78 to 79 | C[C@@](O)(C(=O)N1CCC(C(=O)c2ccc(F)cc2)CC1)C(F)(F)F
67 | 236 to 237 | Nc1ccc(S(=O)(=O)c2cc(-c3ccc(Cl)cc3)nc(N3CCCC3)c2)cc1
68 | 183 to 185 | CC(C)(C)Nc1c(Nc2ccc3cn[nH]c3c2)c(=O)c1=O
69 | 254 to 257 | CCNCC1CN(c2c(F)cc3c(=O)c(C(=O)O)cn(C4CC4)c3c2Cl)CC1C (configuration not stated)
70 | 156 to 158 | CCOC(=O)c1cc(Br)c2ccccn2c1=O
71 | 95 | O=c1oc(=O)n(Cc2ccccc2)c2ccc(F)cc12
72 | 52 to 53 | COC(=O)c1cc([N+](=O)[O-])ccc1F
